Entries after “also recorded” stand apart in the source; their conditions may differ.
What was measured:
[1] = test system: Wnt-signaling pathway in primary lung fibroblasts isolated from a E12.5 fetal lung; assay: TopFlash/FopFlash reporter assay, primary fetal lung cells; assay type: cell-based, mouse; conditions: 0.4 to 500 ng/ml, 20 hours
Experimental: (§1) Primary mouse fibroblasts isolated from E12.5 lung explants, the human epithelial lung carcinoma cell line A549 cells (ATCC CCL-185), the human epithelial lung adenocarcinoma cell line Calu-3 (ATCC_HTB-55) and the normal human fetal lung fibroblast cell line HFL-1 cells (ATCC—153) were cultured in 96-well plates and transfected with the TopFlash and FopFlash reporter constructs using lipofectamine 2000 according to the manufacturer's instructions. As an internal control for transfection efficiency, a constitutive renilla luciferase reporter (Promega) was cotransfected. The cells were transfected with the above-mentioned reporter constructs and simultaneously treated with different concentrations of Wnt3A for 20 hours, after which the cells were lysed and luciferase expression was measured using a Berthold luminometer for two seconds (V. Korinek et al., Mol. Cell. Biol. 18:1248-1256, 1998). The Lipofectamine 2000 transfection reagent was purchased from Invitrogen Life Technologies. The wild-type beta-catenin/TCF reporter plasmid (TOPFLASH) and mutated reporter plasmid (FOPFLASH) were obtained from Upstate Biotechnology (NY, USA).
The dissociated lungs were co-transfected with the TopFlash reporter construct that is activated by nuclear beta-catenin transcription complexes. […]

beta-catenin = assay: Nuclear translocation of beta-catenin, immunohistology of fetal lung explants; assay type: cell-based, mouse
Experimental: FIG. 8: Nuclear translocation of beta-catenin by Wnt3A in fetal lung explants. The translocation of beta-catenin was determined using immunohistological analysis of histological sections from fetal lung explants (E12.5), cultured for two days in the presence of Wnt3a at a concentration of 0 ng/ml (Panel A); 10 ng/ml (Panel B); 50 ng/ml (Panel C); 250 ng/ml (Panel D); 500 ng/ml (Panel E) and 1000 ng/ml (Panel F).
The primary antibodies used for the immunohistochemical detection was for beta-catenin; anti beta-catenin IgG, mAb, clone 14 from BD-Transduction Laboratories, for tubulin-beta mAb clone TBN05 (Tub2.1) from Neomarkers, for BrdU; anti-Bromodeoxyuridine (BrdU), mAb clone ZBU30 from Zymed Laboratories Inc.
In order to determine whether Wnt3A actually elevates the Wnt-signaling pathway in these explants, histological sections were stained for beta-catenin, the intracellular factor, which, together with members of the high mobility group (HMG) of transcription factors such as TCF1 and LEF, transducer the Wnt signal to the nucleus.

[2] = test system: mesenchyme and epithelium of fetal lung explants; assay: TUNEL assay on sections of fetal lung explants; assay type: cell-based, mouse
Experimental: The induction of apoptosis was detected using the “In Situ Cell Death Detection Kit,” of Roche (Cat. No. 11 684 817 001) according to the manufacturer's instructions.
To further analyze the effect of Wnt3a upon apoptosis and proliferation, lung explants were cultured for four days in the presence of 0, 4, 20, 100, 250, 500, 750 and 1000 ng/ml. In order to identify whether after Wnt3A treatment cells are viable and active, proliferating BrdU was added to the culture medium, which is incorporated in newly synthesized DNA of active proliferating cells, two hours before the fixation of the lung explants. […] To better investigate this effect, histological sections were analyzed with the TUNEL assay, which detects fragmented DNA present in apoptotic cells (material and methods).

[3] = test system: Wnt-signaling pathway in normal human fetal lung fibroblast cell line HFL-1; assay: TopFlash/FopFlash reporter assay, HFL-1; assay type: cell-based; conditions: HFL-1, 20 hours
Experimental: as §1, with “The Lipofectamine 2000 transfection reagent was purchased from Invitrogen Life Technologies. The wild-type beta-catenin/TCF reporter plasmid (TOPFLASH) and mutated reporter plasmid (FOPFLASH) were obtained from Upstate Biotechnology (NY, USA).” left out
In order to analyze if Wnt3A is able to activate the Wnt signal-transduction pathway in humans, we stimulated three different cell lines from human origin with Wnt3A and measured the response with the TopFlash/FopFlash reporter assay. The three human lung-derived cell lines analyzed were the lung epithelial carcinoma cell line A549 (FIG. 9B), the normal lung fibroblast line HFL-1 (FIG. 9C), and the epithelial adenocarcinoma cell line calu-3 (FIG. 9D).

[4] = test system: fetal lung explants (E12.5); assay: Expression profiling of lung explants, Affymetrix MOE430AB microarray; assay type: cell-based, mouse
Experimental: To further investigate the effect of Wnt3A inhibition on lung differentiation, we analyzed the expression profiles of Wnt3A-treated lung explants with microarray analysis using the Affymetrix chip set MOE430AB, containing the complete mouse transcriptome. The lung explants, per condition, ten complete fetal lungs isolated from E12.5 embryos, were treated for four hours with 0 and 250 ng/ml Wnt3A (Wnt0/4 hr and Wnt250/4 hr, respectively), and for 24 hours with 0, 10, 50 and 250 ng/ml Wnt3A ([…], […], Wnt50/24 hr, Wnt250/24 hr, respectively). The 60 lung explants were isolated together from six pregnant Swiss mice and randomly distributed over the six different conditions.
After the indicated time period, total RNA was isolated, which was processed for the synthesis of a probe for hybridization onto the MOE-430AB chip sets. […] A rapid response was observed when the lungs were treated for four hours with 250 ng/ml Wnt3A.

[5] = 250 ng/ml, four hours, versus 0 ng/ml four hours
[6] = 24 hours, "the ng/ml wnt3a-treated group"

## Wnt3a
[1]
  TopFlash versus FopFlash reporter response: clear Wnt3A dosage-dependent response
beta-catenin; 10-1000 ng/ml, within the first two days, mesenchymal cells around lung buds
  nuclear beta-catenin: dosage-dependent increase in nuclear beta-catenin
beta-catenin; 250 and 500 ng/ml, two days
  nuclear beta-catenin: maximal; also recorded: strong induction of nuclear beta-catenin
beta-catenin; four- and eight-day cultures
  nuclear beta-catenin: had disappeared
[2]; 1000 ng/ml, four days
  TUNEL-positive epithelial cells: almost none of the epithelial cells were TUNEL positive
  apoptosis in the mesenchyme (TUNEL): massive induction of apoptosis in the mesenchyme
  mesenchymal cells picnotic and TUNEL positive: ~100%
[2]; 1000 ng/ml, four days, listed as Wnt3A
  TUNEL-positive epithelial cells: unaffected epithelium
[2]; four days of culture
  concentration at which TUNEL-positive (apoptotic) cells increase: above 100 ng/ml
[3]
  TopFlash/FopFlash reporter response: respond to Wnt3A in a dosage-dependent manner; also recorded: strong induction of the Wnt-signaling pathway
[4]; 10 ng/ml, 24 hours
  changes in gene expression: capable of inducing significant changes in gene expression
[4]; 50 ng/ml, 24 hours
  down-regulated genes: 92 genes
  up-regulated genes: 95 genes
[4]; 250 ng/ml four hours versus 24-hour groups
  genes whose four-hour profile is opposite from the 24-hour Wnt3A-treated profiles: circa 75%
[4]; 250 ng/ml, 24 hours
  down-regulated genes, more than two-fold: 152 genes
  up-regulated genes, more than two-fold: 195 genes
[4]; [5]
  down-regulated genes, more than two-fold: 1165 genes
  up-regulated genes, more than two-fold: 446 genes
[4]; 10, 50 and 250 ng/ml, 24 hours
  cluster analysis of expression profiles of 4500 genes: effect on differentiation: inhibits, at least partially, the differentiation of fetal lung tissue; also recorded: inhibits lung differentiation and development
[4]; [6]
  down-regulated genes, more than two-fold: 223 genes
  up-regulated genes, more than two-fold: 209 genes
